Source: patent US20220023317A1, “PREVENTING OR MITIGATING CHEMOTHERAPY INDUCED ALOPECIA USING VITAMIN D” (Berg LLC, priority 2013, published 2022)

Assay: Quantification of calcitriol in ex vivo porcine skin layers
Design: species or system minipig
Source text: The skin sections were weighed and the weight recorded.

[1] = Female Minipigs, 10 μg/mL, mean ± SD
[2] = Female Minipigs, 30 μg/mL, mean ± SD
[3] = Male Minipig (1 animal), 100 μg/mL, mean ± SD
[4] = Male Minipigs, 3 μg/mL, mean ± SD
[5] = Male Minipigs, 10 μg/mL, mean ± SD
[6] = Male Minipigs, 30 μg/mL, mean ± SD

C=C1/C(=C\C=C2/CCC[C@]3(C)[C@@H]([C@H](C)CCCC(C)(C)O)CC[C@@H]23)C[C@@H](O)C[C@@H]1O [Calcitriol, (1a.3B.5Z.7E)-9,10-secocholesta-5,7,10(19)-triene-1,3,25-triol]
Stratum Corneum calcitriol recovered (Female Minipigs, 1 μg/mL, mean ± SD): 0.76 ± 1.3 (3) ng/cm^2
Dermis calcitriol recovered (Female Minipigs, 1 μg/mL, zero = below Lower Limit of Detection): 0 ± 0 (3) ng/mg
Stratum Corneum calcitriol recovered (Female Minipigs, 3 μg/mL, mean ± SD): 1.12 ± 1.49 (3) ng/cm^2
Dermis calcitriol recovered (Female Minipigs, 3 μg/mL, zero = below Lower Limit of Detection): 0 ± 0 (3) ng/mg
Epidermis calcitriol recovered [1]: 0.02 ± 0.04 (3) ng/mg
Stratum Corneum calcitriol recovered [1]: 1.65 ± 1.80 (3) ng/cm^2
Dermis calcitriol recovered (Female Minipigs, 10 μg/mL, zero = below Lower Limit of Detection): 0.0 ± 0.0 (3) ng/mg
Epidermis calcitriol recovered [2]: 0.34 ± 0.24 (3) ng/mg
Stratum Corneum calcitriol recovered [2]: 20.2 ± 11.7 (3) ng/cm^2
Dermis calcitriol recovered (Female Minipigs, 30 μg/mL, zero = below Lower Limit of Detection): 0.0 ± 0.0 (3) ng/mg
Dermis calcitriol recovered [3]: 0.13 ± 0.04 (1) ng/mg
Epidermis calcitriol recovered [3]: 2.09 ± 1.0 (1) ng/mg
Stratum Corneum calcitriol recovered [3]: 118.1 ± 11.4 (1) ng/cm^2
Epidermis calcitriol recovered (Male Minipigs, 1 μg/mL, mean ± SD): 0.16 ± 0.28 (3) ng/mg
Stratum Corneum calcitriol recovered (Male Minipigs, 1 μg/mL, twice daily 7 days, mean ± SD): 56.1 ± 17.4 (3) ng/cm^2
Dermis calcitriol recovered (Male Minipigs, 1 μg/mL, zero = below Lower Limit of Detection): 0.0 ± 0.0 (3) ng/mg
Epidermis calcitriol recovered [4]: 0.14 ± 0.23 (3) ng/mg
Stratum Corneum calcitriol recovered [4]: 62.4 ± 7.91 (3) ng/cm^2
Dermis calcitriol recovered (Male Minipigs, 3 μg/mL, zero = below Lower Limit of Detection): 0.0 ± 0.0 (3) ng/mg
Epidermis calcitriol recovered [5]: 0.23 ± 0.20 (3) ng/mg
Stratum Corneum calcitriol recovered [5]: 59.6 ± 14.1 (3) ng/cm^2
Dermis calcitriol recovered (Male Minipigs, 10 μg/mL, zero = below Lower Limit of Detection): 0.0 ± 0.0 (3) ng/mg
Epidermis calcitriol recovered [6]: 0.38 ± 0.33 (3) ng/mg
Stratum Corneum calcitriol recovered [6]: 54.6 ± 32.5 (3) ng/cm^2
Dermis calcitriol recovered (Male Minipigs, 30 μg/mL, zero = below Lower Limit of Detection): 0.0 ± 0.0 (3) ng/mg
